“Also recorded” adds a separate entry of the source.
Legend:
[1] = Solubility of N-acetylglucosamine in water miscible solvents; format: physicochemical; details: IPA, ethanol, methanol, acetone, tetrahydrofuran, dimethylsulfoxide, dimethylformamide, dioxane, acetonitrile
From the text: Recovering N-acetylglucosamine-containing solids from the fermentation broth can be enhanced by contacting N-acetylglucosamine in the broth with a water miscible solvent. […] Therefore, by introduction of such a water miscible solvent into the broth, the N-acetylglucosamine will become less soluble and will further recovery.

[2] = Stability of N-acetylglucosamine in M9A medium
Description: The stability of N-acetylglucosamine was tested in an experiment similar to the glucosamine degradation studies. The stability of 80 and 40 g l^−1 N-acetyl glucosamine at pH 5.5 and 7.0 was monitored in medium M9A-without glucose over a period of two days.

[3] = Degradation in hydrochloric acid at 90-100 C based on ammonia formation; format: physicochemical; details: 30% hydrochloric acid, 90 C, 3 hours
Description: Glucosamine degradation was examined at 90° C. and 100° C. using 5% and 10% glucosamine hydrochloride (w/w) with 12% and 20% hydrochloric acid by weight. Samples were incubated from 1-24 hours and assayed enzymatically for ammonia using glutamate dehydrogenase. […] Glucosamine degradation is based on ammonia formation.
N-acetylglucosamine was hydrolyzed to glucosamine at 90° C. using the hybridization oven. The reaction was carried out inside a screw capped glass tube. The 30% hydrochloric acid (30 g) was preincubated at 90° C. for 1 hour. After this 10 g solid N-acetylglucosamine was added, quickly dissolved, and a To sample taken. Samples were taken at 30-minute intervals over the next three hours. […] Samples were analyzed for ammonia enzymatically.

[4] = Heat stability of purified solid N-acetylglucosamine at 105 C; format: physicochemical; details: 98% pure sample, 2 hours at 105 C
[5] = system: E. coli 7107-18; assay: Effects of N-acetyl glucosamine on E. coli 7107-18; format: cell-based; details: 62 g/L N-acetyl glucosamine in M9A-glucose (40 g/L), also medium pre-incubated more than eight hours
From the text: Cells were inoculated into […]-glucose (40 g/L) containing 62 g/L N-acetyl glucosamine.

[6] = Stability of NAG in fermentation at 37 C and pH 7.0; format: physicochemical; details: after cessation of glucose feed at 37 C and pH 7.0
From the text: The use of lower temperature and pH were key factors in stabilizing the GLcN fermentation, primarily due to the labile nature of GLcN at higher pH and temperature. However, it was shown that NAG was stable at neutral pH. Fermentation for NAG production was operated in the pH range of 6.7 to 7.0 throughout the program.

[7] = molecular target: glucosamine N-acetyltransferase (Saccharomyces cerevisiae, UniProt P43577); assay: Product inhibition of glucosamine N-acetyltransferase; format: biochemical
[8] = molecular target: T1, E. coli glucosamine synthase GlmS*54 (Escherichia coli, UniProt P17169, A39T/G472S/R250C); assay: Effects of phosphorylated sugars on glucosamine synthase; format: biochemical
T1 construct: made in house; host or cells: E. coli 7107-18 (printed '7017-18'; T7-glmS*54 integrated at galK) and strains derived from it; crude extract
Description: Glucosamine synthetase activity was examined in the presence of various phosphorylated sugars. Crude enzyme extracts was prepared from cells of 7017-18 grown in shake flasks for 24 hours with lactose induction.

[9] = molecular target: phosphoglucoisomerase (Pgi) (Escherichia coli, UniProt P0A6T1); assay: Effect of phosphorylated amino sugars on phosphoglucoisomerase activity; format: biochemical; details: in vitro, FIG. 15
From the text: Therefore, effects of glucosamine-6-P and N-acetylglucosamine-6-P on several of the enzymes were examined.

[10] = molecular target: glucose-6-P dehydrogenase (zwf) (Escherichia coli, UniProt P0AC53, A9V); assay: Effect of phosphorylated amino sugars on glucose-6-P dehydrogenase; format: biochemical; details: in vitro, FIG. 16
[11] = substrate: O=P(O)(O)OC[C@H]1OC(O)(CO)[C@@H](O)[C@@H]1O; assay: GlmS (glucosamine synthase) inhibition and Michaelis-Menten kinetics, crude extract of strain 2123-12; format: biochemical, Escherichia coli; details: other: crude extracts, nonlinear regression
Description: (§1) Different glucosamine synthetase enzymes, including native B. subtillus GlmS, native E. coli GlmS and mutant E. coli GlmS, were studied in vitro. Cells of various E. coli strains were grown in the M9A medium, harvested, and frozen. Cells extracts were prepared and the glucosamine synthetases were characterized and compared.
(§2) Enzyme sensitivities to the reaction product glucosamine-6-P were examined. […] This figure highlights the dramatic difference between the wild type GlmS and these mutant GlmS strains.
(§3) The Mutants 2123-54 and the B. subtilis enzyme have higher Ki values (Table 6). Measured Ki constants for several of these mutants are 4 to 8 times the value for the native enzyme in strain 2123-12. From shake flask studies it is apparent that decreased sensitivity to glucosamine-6-P allows higher glucosamine levels to accumulate.
(§4) These values are slightly higher than those obtained with the native enzyme.

[12] = substrate: NC(=O)CC[C@H](N)C(=O)O; assay: as above; format: biochemical, Escherichia coli; details: other: crude extracts, nonlinear regression
Description: as §1, §2, §3, §4

[13] = substrate: O=P(O)(O)OC[C@H]1OC(O)(CO)[C@@H](O)[C@@H]1O; assay: GlmS inhibition and Michaelis-Menten kinetics, crude extract of strain 2123-54; format: biochemical, Escherichia coli; details: other: crude extracts
Description: as §1, §2, §3, §4

[14] = substrate: NC(=O)CC[C@H](N)C(=O)O; assay: as above; format: biochemical, Escherichia coli; details: other: crude extracts
Description: as §1, §2, §3, §4

[15] = system: glucosamine synthetase (GlmS); assay: Thermal stability of GlmS enzymes (denaturation at 50 C); format: biochemical, E. coli; details: crude extracts incubated at 50 C, sampled over 90 minutes, assayed at 25 C
Description: Denaturation at 50° C. was used to measure possible differences in thermal stability of different GlmS enzymes. Crude extracts were incubated at 50° C. and sampled over a 90-minute period. The samples were assayed for glucosamine synthetase activity at 25° C. with saturating levels of all substrates.

[16] = system: glucosamine synthetase (GlmS); format: biochemical, E. coli; B. subtilis; details: crude extracts
[17] = system: glucosamine synthetase (GlmS); assay: Sensitivity of GlmS enzymes to inhibition by glucosamine-6-P (initial velocity, Ki); format: biochemical, E. coli; B. subtilis; details: 0-30 mM glucosamine-6-P
Description: as §1
Enzyme sensitivities to the reaction product glucosamine-6-P were examined.

phosphoglucoisomerase (Pgi), sequence (P0A6T1 whole entry): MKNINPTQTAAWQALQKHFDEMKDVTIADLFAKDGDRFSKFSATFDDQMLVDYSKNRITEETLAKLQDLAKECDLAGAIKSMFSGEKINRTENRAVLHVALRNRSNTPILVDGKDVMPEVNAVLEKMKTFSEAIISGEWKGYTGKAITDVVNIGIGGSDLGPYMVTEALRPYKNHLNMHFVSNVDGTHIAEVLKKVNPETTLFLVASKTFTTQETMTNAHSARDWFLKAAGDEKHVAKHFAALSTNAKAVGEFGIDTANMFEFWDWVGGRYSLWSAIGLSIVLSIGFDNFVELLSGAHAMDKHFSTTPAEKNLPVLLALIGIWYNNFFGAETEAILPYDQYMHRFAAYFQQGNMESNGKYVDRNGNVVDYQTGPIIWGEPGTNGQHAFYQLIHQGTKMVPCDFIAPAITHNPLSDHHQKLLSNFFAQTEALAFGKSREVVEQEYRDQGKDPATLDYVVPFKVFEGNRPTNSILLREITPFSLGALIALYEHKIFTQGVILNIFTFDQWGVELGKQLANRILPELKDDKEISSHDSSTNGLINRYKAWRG
glucose-6-P dehydrogenase (zwf), sequence (P0AC53 whole entry A9V): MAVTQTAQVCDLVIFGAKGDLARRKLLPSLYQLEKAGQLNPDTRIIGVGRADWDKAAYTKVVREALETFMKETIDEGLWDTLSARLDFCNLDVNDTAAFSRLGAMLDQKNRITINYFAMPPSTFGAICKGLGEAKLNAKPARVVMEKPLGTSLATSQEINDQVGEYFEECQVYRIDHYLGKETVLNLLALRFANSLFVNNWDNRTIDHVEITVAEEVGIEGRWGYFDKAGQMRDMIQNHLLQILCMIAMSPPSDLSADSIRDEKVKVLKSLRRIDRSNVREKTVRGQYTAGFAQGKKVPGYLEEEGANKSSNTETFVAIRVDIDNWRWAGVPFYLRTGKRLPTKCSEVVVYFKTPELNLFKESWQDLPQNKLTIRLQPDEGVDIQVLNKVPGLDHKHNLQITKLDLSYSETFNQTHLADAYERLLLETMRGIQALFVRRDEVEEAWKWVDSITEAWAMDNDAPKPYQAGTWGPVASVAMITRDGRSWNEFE
glucosamine N-acetyltransferase, sequence (P43577 whole entry): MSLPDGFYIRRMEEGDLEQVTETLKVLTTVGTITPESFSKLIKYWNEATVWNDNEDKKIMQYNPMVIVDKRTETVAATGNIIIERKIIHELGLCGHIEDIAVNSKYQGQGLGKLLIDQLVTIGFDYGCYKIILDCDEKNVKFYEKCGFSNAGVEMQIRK

For `CC(=O)N[C@@H](C=O)[C@@H](O)[C@H](O)[C@H](O)CO` [N-acetylglucosamine, 2-acetamido-2-deoxy-D-glucose], the “solubility in water miscible solvents” value [1] was “very insoluble”, the “drop in pH during incubation” value [2] was “no significant drop in pH” and the “degradation of N-acetyl glucosamine” value ([2]; 80 and 40 g l-1, pH 5.5 and 7.0, M9A without glucose, two days) was “No significant degradation”. The amber color formation ([2]; M9A medium, 48 hours) was “No such color formation”, the “degradation based on ammonia levels” value [3] was “around 3.5%” and the “color change on heating” value [4] was “turned light brown”. For the same molecule, the “weight loss on heating” value [4] was 4.7%, the growth inhibition [5] was “No significant growth inhibition” and the “time NAG was stable” value [6] was “at least 50 hours”.

In the case of `CC(=O)N[C@H]1C(O)O[C@H](COP(=O)(O)O)[C@@H](O)[C@@H]1O` (stereo partly drawn) [N-acetylglucosamine-6-P, N-acetylglucosamine-6-phosphate], the “product inhibition of glucosamine N-acetyltransferase” value [7] is reported as “did not show any significant product inhibition”, the activity at 10000 µM [8] is reported as 100% and the activity at 20000 µM [8] is reported as 100%. For the same molecule, the “inhibition of phosphoglucoisomerase (Pgi)” value [9] was “significantly less so; also recorded: does not significantly inhibit” and the “inhibition of glucose-6-P dehydrogenase (zwf)” value [10] was “does not significantly inhibit”.

B1: E. coli GlmS (glucosamine-6-phosphate synthase), wild type, SEQ ID NO:2 (strain 2123-12) (Escherichia coli K-12) (protein)
chain: CGIVGAIAQRDVAEILLEGLRRLEYRGYDSAGLAVVDAEGHMTRLRRLGKVQMLAQAAEEHPLHGGTGIAHTRWATHGEPSEVNAHPHVSEHIVVVHNGIIENHEPLREELKARGYTFVSETDTEVIAHLVNWELKQGGTLREAVLRAIPQLRGAYGTVIMDSRHPDTLLAARSGSPLVIGLGMGENFIASDQLALLPVTRRFIFLEEGDIAEITRRSVNIFDKTGAEVKRQDIESNLQYDAGDKGIYRHYMQKEIYEQPNAIKNTLTGRISHGQVDLSELGPNADELLSKVEHIQILACGTSYNSGMVSRYWFESLAGIPCDVEIASEFRYRKSAVRRNSLMITLSQSGETADTLAGLRLSKELGYLGSLAICNVPGSSLVRESDLALMTNAGTEIGVASTKAFTTQLTVLLMLVAKLSRLKGLDASIEHDIVHGLQALPSRIEQMLSQDKRIEALAEDFSDKHHALFLGRGDQYPIALEGALKLKEISYIHAEAYAAGELKHGPLALIDADMPVIVVAPNNELLEKLKSNIEEVRARGGQLYVFADQDAGFVSSDNMHIIEMPHVEEVIAPIFYTVPLQLLAYHVALIKGTDVDQPRNLAKSVTVE
notes: made in house; host or cells: E. coli strain 2123-12 (T7-glmS integrated in the chromosome), crude cell extract
B1 gave a Km [11] of 200 µM and a Km [12] of 170 µM.

B2: E. coli GlmS mutant GlmS*54, SEQ ID NO:6 (Ala39Thr, Arg250Cys, Gly472Ser) (strain 2123-54) (Escherichia coli K-12; A39T/G472S/R250C) (protein)
chain: CGIVGAIAQRDVAEILLEGLRRLEYRGYDSAGLAVVDTEGHMTRLRRLGKVQMLAQAAEEHPLHGGTGIAHTRWATHGEPSEVNAHPHVSEHIVVVHNGIIENHEPLREELKARGYTFVSETDTEVIAHLVNWELKQGGTLREAVLRAIPQLRGAYGTVIMDSRHPDTLLAARSGSPLVIGLGMGENFIASDQLALLPVTRRFIFLEEGDIAEITRRSVNIFDKTGAEVKRQDIESNLQYDAGDKGIYCHYMQKEIYEQPNAIKNTLTGRISHGQVDLSELGPNADELLSKVEHIQILACGTSYNSGMVSRYWFESLAGIPCDVEIASEFRYRKSAVRRNSLMITLSQSGETADTLAGLRLSKELGYLGSLAICNVPGSSLVRESDLALMTNAGTEIGVASTKAFTTQLTVLLMLVAKLSRLKGLDASIEHDIVHGLQALPSRIEQMLSQDKRIEALAEDFSDKHHALFLSRGDQYPIALEGALKLKEISYIHAEAYAAGELKHGPLALIDADMPVIVVAPNNELLEKLKSNIEEVRARGGQLYVFADQDAGFVSSDNMHIIEMPHVEEVIAPIFYTVPLQLLAYHVALIKGTDVDQPRNLAKSVTVE
notes: made in house; host or cells: E. coli strain 2123-54 (lacZ::T7-glmS*54), crude cell extract
B2 gave a Km [13] of 640 µM and a Km [14] of 730 µM.

B3: WT E. coli GlmS: wild-type E. coli glucosamine-6-phosphate synthase (SEQ ID NO:2), expressed in strain 2123-12 (protein, listed as Escherichia coli)
chain: MCGIVGAIAQRDVAEILLEGLRRLEYRGYDSAGLAVVDAEGHMTRLRRLGKVQMLAQAAEEHPLHGGTGIAHTRWATHGEPSEVNAHPHVSEHIVVVHNGIIENHEPLREELKARGYTFVSETDTEVIAHLVNWELKQGGTLREAVLRAIPQLRGAYGTVIMDSRHPDTLLAARSGSPLVIGLGMGENFIASDQLALLPVTRRFIFLEEGDIAEITRRSVNIFDKTGAEVKRQDIESNLQYDAGDKGIYRHYMQKEIYEQPNAIKNTLTGRISHGQVDLSELGPNADELLSKVEHIQILACGTSYNSGMVSRYWFESLAGIPCDVEIASEFRYRKSAVRRNSLMITLSQSGETADTLAGLRLSKELGYLGSLAICNVPGSSLVRESDLALMTNAGTEIGVASTKAFTTQLTVLLMLVAKLSRLKGLDASIEHDIVHGLQALPSRIEQMLSQDKRIEALAEDFSDKHHALFLGRGDQYPIALEGALKLKEISYIHAEAYAAGELKHGPLALIDADMPVIVVAPNNELLEKLKSNIEEVRARGGQLYVFADQDAGFVSSDNMHIIEMPHVEEVIAPIFYTVPLQLLAYHVALIKGTDVDQPRNLAKSVTVE
With B3 the “thermal stability at 50 C” value [15] was “little significant difference in thermal stability”.

B4: Wild type Bacillus GlmS: wild-type Bacillus subtilis glucosamine-6-phosphate synthase (SEQ ID NO:16), expressed in E. coli strain 7107-24 (protein, listed as Bacillus subtilis)
chain: MCGIVGYIGQLDAKEILLKGLEKLEYRGYDSAGIAVANEQGIHVFKEKGRIADLREVVDANVEAKAGIGHTRWATHGEPSYLNAHPHQSALGRFTLVHNGVIENYVQLKQEYLQDVELKSDTDTEVVVQVIEQFVNGGLETEEAFRKTLTLLKGSYAIALFDNDNRETIFVAKNKSPLLVGLGDTFNVVASDAMAMLQVTNEYVELMDKEMVIVTDDQVVIKNLDGDVITRASYIAELDASDIEKGTYPHYMLKETDEQPVVMRKIIQTYQDENGKLSVPGDIAAAVAEADRIYIIGCGTSYHAGLVGKQYIEMWANVPVEVHVASEFSYNMPLLSKKPLFIFLSQSGETADSRAVLVQVKALGHKALTITNVPGSTLSREADYTLLLHAGPEIAVASTKAYTAQIAVLAVLASVAADKNGINIGFDLVKELGIAANAMEALCDQKDEMEMIAREYLTVSRNAFFIGRGLDYFVCVEGALKLKEISYIQAEGFAGGELKHGTIALIEQGTPVFALATQEHVNLSIRGNVKEVAARGANTCIISLKGLDDADDRFVLPEVNPALAPLVSVVPLQLIAYYAALHRGCDVDKPRNLAKSVTVE
For B4, the “Km (fructose-6-P)” value [16] was “very similar to the mutant E. coli enzyme GlmS*54” and the “sensitivity to GlcN-6-P inhibition / product resistance (in words)” value [17] was “product resistance very comparable to the E. coli mutant GlmS enzymes”.

— patent publication US8124381B2, “Process and materials for production of glucosamine and N-acetylglucosamine” (Arkion Life Sciences, priority 2002, dated 2012)
